The results in this text go back to ChEMBL document CHEMBL1201862, “PubChem BioAssay data set” (2004).

The structures appear in SMILES notation. Calls of active or inactive are those of the source.

T1 sequence (P11940 whole entry, the tested form may be a part): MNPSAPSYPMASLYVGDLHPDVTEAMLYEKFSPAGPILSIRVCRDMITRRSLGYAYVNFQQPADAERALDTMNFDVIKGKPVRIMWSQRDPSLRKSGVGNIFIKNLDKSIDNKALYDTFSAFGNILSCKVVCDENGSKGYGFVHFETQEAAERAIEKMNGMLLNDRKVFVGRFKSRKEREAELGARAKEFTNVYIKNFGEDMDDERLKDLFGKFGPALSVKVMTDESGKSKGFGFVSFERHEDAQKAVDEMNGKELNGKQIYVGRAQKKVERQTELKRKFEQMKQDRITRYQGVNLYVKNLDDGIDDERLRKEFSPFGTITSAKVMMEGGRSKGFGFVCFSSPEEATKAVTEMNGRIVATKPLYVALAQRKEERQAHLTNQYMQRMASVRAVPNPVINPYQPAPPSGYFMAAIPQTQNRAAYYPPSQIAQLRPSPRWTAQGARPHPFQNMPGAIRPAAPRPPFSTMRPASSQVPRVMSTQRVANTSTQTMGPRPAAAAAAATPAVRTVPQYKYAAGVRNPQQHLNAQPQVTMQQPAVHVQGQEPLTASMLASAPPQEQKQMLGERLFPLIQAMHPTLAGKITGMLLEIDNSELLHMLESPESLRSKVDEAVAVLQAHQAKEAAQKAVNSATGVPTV

In one test the target is Cytochrome P450 2D6 (Homo sapiens, UniProt P10635).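 Further: CYP2D6 member of a cytochrome P450 panel assay.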
Cytochrome P450 2D6, sequence (P10635 whole entry): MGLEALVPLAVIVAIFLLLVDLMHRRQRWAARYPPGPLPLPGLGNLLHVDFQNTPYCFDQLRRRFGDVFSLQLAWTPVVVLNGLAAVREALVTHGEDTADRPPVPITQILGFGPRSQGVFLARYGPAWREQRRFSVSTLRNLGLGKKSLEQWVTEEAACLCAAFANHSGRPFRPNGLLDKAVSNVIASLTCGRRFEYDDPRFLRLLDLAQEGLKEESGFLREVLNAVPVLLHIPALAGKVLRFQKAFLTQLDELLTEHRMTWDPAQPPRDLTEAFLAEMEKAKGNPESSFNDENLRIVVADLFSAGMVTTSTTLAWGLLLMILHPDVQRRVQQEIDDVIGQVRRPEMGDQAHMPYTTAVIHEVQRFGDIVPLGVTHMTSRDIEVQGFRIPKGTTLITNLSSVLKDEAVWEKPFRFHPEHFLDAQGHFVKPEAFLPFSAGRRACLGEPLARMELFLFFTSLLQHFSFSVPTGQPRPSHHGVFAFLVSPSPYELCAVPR
Settings: not given
One may read the AC50 as the concentration giving half of the maximal activity seen. Turning to `Cc1nn(CC(=O)NCc2ccccc2Cl)c(C)c1[N+](=O)[O-]`, the AC50 was 25.1 µM (inconclusive).

With `C/C(=N\NC(=O)c1cccc(Cl)c1)c1cccc(NC(=O)C(C)C)c1`, the concentration at half-maximal activity (AC50) is 28.2 µM (inconclusive).

The target in another test is Paired box protein Pax-8 (Homo sapiens, UniProt Q06710). In words: PAX8 transcriptional activity inhibition in RMG-I – RMG-I cells, luciferase, cherry-pick, dose response (AID 687027).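 Further: luciferase reporter driven by Pax8 target thyroperoxidase promoter measured by SteadyGlo luminescence.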 Format: functional, cell-based.
Paired box protein Pax-8, sequence (Q06710 whole entry): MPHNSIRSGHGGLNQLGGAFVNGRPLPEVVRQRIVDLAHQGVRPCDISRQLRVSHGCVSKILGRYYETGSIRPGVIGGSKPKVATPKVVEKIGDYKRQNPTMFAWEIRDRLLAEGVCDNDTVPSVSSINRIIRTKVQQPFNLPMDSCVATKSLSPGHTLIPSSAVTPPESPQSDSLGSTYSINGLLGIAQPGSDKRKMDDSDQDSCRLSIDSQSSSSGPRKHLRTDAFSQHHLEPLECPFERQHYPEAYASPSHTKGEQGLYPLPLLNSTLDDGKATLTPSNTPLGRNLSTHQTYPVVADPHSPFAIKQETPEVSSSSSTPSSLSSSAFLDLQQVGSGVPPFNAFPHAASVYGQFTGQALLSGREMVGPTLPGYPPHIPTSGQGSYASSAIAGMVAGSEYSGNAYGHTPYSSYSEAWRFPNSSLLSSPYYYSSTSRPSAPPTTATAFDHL
Settings: not given
For the compound `O=C(NC1CC1)c1ccc2c(c1)C1C3CCC(C3)C1C(c1ccccc1)N2` (stereo not drawn), the AC50 is 48.2 µM (active).

`Cc1nc(Nc2nc(CSc3nc4ccccc4[nH]3)cc(=O)[nH]2)nc2ccccc12`: the AC50 is 9.16 µM (active).

For the compound `C[C@@H]1CN([C@H](C)CO)C(=O)c2cc(NC(=O)Nc3ccc(F)cc3)ccc2O[C@@H](C)CCCCO[C@H]1CN(C)Cc1ccc(Cl)c(Cl)c1`, the AC50 was 9.51 µM (active).

For the compound `C[C@@H]1CCCCO[C@@H](CN(C)Cc2ccc(Cl)c(Cl)c2)[C@H](C)CN([C@@H](C)CO)C(=O)c2cc(NS(=O)(=O)c3ccccc3)ccc2O1`, the concentration at half-maximal activity (AC50) is 13.4 µM (active).

Another test concerns the target T1, Polyadenylate-binding protein 1 (Homo sapiens, UniProt P11940). In words: MLLE domain peptide-binding blockers, IC50 – biochemical, fluorescence polarization, FITC-PAM2 peptide, dose response (AID 602259). The format is functional. The conditions noted are these: read-out: IC50_Mean.
Regarding `COCCn1c(=N)c(C(=O)NCc2ccco2)cc2c(=O)n3cc(C)ccc3nc21`, the IC50 was 16.7 µM (active).

For another test, the target named is Cytochrome P450 2C9 (Homo sapiens, UniProt P11712).
Cytochrome P450 2C9, sequence (P11712 whole entry): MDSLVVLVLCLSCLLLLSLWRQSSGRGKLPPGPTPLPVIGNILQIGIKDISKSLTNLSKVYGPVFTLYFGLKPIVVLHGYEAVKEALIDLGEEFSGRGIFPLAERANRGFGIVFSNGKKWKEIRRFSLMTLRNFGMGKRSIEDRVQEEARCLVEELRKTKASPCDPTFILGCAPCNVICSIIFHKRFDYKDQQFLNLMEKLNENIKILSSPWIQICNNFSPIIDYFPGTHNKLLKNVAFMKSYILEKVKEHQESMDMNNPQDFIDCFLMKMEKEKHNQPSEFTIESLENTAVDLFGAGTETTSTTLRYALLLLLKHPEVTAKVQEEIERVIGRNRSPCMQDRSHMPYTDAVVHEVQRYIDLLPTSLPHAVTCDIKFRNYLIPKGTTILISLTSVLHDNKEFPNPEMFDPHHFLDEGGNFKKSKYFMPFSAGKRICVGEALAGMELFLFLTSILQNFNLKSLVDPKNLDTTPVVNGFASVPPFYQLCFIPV
Settings: not given
As for `Cc1nn(CC(=O)NCc2ccccc2Cl)c(C)c1[N+](=O)[O-]`, the AC50 was 12.6 µM (inconclusive).

Consider `O=C(N/N=C/c1ccc(Cl)cc1)Nc1ccccc1`, for which the half-maximal activity concentration (AC50) was 25.1 µM (inconclusive).

In the case of `COc1ccc(-c2nc(C(=O)N3CCN(C)CC3)sc2-c2ccc(OC)cc2)cc1` [FR-122047], the AC50 is 20 µM (inconclusive).

The target in a further test is T2, Zinc finger protein mex-5 (Caenorhabditis elegans, UniProt Q9XUB2).
T2 sequence (Q9XUB2 whole entry): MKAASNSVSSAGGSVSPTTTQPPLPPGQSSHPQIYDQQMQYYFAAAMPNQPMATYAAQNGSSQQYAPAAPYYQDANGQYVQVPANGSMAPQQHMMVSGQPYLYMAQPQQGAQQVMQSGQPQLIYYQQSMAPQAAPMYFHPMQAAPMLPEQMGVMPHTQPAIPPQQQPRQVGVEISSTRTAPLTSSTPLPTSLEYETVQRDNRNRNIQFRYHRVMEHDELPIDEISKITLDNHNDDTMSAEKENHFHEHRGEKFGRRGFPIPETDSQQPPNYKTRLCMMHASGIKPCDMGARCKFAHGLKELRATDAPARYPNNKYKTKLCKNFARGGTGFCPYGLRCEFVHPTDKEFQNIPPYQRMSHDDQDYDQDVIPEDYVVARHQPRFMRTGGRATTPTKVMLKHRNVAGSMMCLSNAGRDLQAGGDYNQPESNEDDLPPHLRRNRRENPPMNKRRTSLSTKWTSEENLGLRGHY
The test can be described thus: potency of MEX-5 RNA-binding blockers – biochemical, C. elegans, fluorescence polarization, dose response (AID 1960).
Settings: not given
On the technique in general: In fluorescence polarisation assays a small probe gives low polarisation when free and higher when bound to something large.
For the compound `Nc1ncnc(NNC(=O)CNC(=O)c2c(F)cccc2Cl)c1[N+](=O)[O-]`, the EC50 is 0.241 µM (active).

As for `C=CCN1C(=O)NC(=O)/C(=C/c2c(CCN(C)C(=O)c3ccccc3)cc3c(c2OC)OCO3)C1=O`, the EC50 is recorded as > 300 µM (not active).

Turning to `CCC(Oc1ccccc1)C(=O)Nc1ccccn1` (stereo not drawn), the EC50 is reported as > 300 µM (not active).

With `COc1ccc(NC(=O)/C=C/c2cccc(Br)c2)cn1`, the EC50 was 12.4 µM (active).

`O=c1[nH]n(-c2ncnc3c2cnn3-c2ccccc2)c(=O)c2ccccc12`: the EC50 was 7.26 µM (active).

Consider `COc1cccc(=O)c2c(C)oc(C)c12`, for which the EC50 is > 300 µM (not active).

The target of another test is T3, Cytochrome P450 1A2 (Homo sapiens, UniProt P05177).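 Further: PubChem cytochrome P450 panel assay, CYP1A2 panel member.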
T3 sequence (P05177 whole entry): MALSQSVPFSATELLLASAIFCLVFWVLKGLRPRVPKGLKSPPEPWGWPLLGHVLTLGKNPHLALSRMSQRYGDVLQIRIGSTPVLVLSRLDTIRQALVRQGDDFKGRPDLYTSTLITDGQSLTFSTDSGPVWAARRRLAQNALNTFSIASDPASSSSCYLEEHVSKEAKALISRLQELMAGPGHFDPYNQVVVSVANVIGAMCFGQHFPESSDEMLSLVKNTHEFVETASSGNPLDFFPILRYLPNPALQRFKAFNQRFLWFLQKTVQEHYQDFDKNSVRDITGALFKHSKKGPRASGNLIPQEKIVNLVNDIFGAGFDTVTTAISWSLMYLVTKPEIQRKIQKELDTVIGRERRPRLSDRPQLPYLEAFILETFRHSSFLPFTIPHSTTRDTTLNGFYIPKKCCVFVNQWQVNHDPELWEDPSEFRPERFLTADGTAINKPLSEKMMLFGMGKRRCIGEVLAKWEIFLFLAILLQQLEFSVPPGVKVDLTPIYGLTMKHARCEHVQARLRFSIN
Settings: not given
As for `Cc1nn(CC(=O)NCc2ccccc2Cl)c(C)c1[N+](=O)[O-]`, the AC50 is 12.6 µM (inconclusive).

Regarding `COc1ccc(-c2nc(C(=O)N3CCN(C)CC3)sc2-c2ccc(OC)cc2)cc1` [FR-122047], the concentration at half-maximal activity (AC50) is 31.6 µM (inconclusive).

The target of a further test is T4, Corticotropin-releasing factor receptor 2/Corticotropin-releasing factor-binding protein (Homo sapiens, UniProt P24387+Q13324).
T4 sequence (Q13324 whole entry): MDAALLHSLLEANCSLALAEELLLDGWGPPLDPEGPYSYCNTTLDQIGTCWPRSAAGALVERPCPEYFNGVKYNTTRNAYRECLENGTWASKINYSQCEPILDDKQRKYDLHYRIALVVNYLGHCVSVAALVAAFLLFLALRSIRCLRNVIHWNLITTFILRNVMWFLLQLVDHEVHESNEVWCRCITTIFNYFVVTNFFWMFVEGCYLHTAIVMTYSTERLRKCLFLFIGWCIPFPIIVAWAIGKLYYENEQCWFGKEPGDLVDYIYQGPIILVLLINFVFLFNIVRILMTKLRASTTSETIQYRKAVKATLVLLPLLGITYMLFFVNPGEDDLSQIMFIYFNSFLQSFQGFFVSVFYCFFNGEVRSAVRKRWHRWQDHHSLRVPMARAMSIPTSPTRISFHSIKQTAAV
T4 sequence (P24387 whole entry): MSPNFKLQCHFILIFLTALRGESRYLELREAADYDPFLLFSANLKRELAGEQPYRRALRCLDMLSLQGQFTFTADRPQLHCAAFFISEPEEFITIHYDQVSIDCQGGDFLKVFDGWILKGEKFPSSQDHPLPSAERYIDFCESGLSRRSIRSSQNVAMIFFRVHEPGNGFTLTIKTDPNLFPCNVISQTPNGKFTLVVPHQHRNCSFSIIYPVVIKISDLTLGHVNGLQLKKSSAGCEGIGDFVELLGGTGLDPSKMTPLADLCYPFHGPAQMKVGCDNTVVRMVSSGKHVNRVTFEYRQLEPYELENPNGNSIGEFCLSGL
In words: activators of CRF receptor 2 with binding protein – uHTS hits, confirmation (AID 602473). Format: functional. The settings on record: read-out: EC50_Mean.
For `Nc1ncnc(NNC(=O)CNC(=O)c2c(F)cccc2Cl)c1[N+](=O)[O-]`, the EC50 is > 53 µM (inactive).

Take `COCCn1c(=N)c(C(=O)NCc2ccco2)cc2c(=O)n3cc(C)ccc3nc21`: the EC50 was > 53 µM (inactive).

The next test concerns the target T1, Polyadenylate-binding protein 1. In words: MLLE binding blockers, Cy5 peptide tracer – biochemical, fluorescence polarization, Cy5-PAM2 peptide, secondary, miRNA deadenylation inhibitor project, dose response (AID 602260). The settings on record: read-out: IC50_Mean. The format is functional.
`COCCn1c(=N)c(C(=O)NCc2ccco2)cc2c(=O)n3cc(C)ccc3nc21`: the IC50 is 33.2 µM (inactive).

The target of the next test is Cytochrome P450 3A4 (Homo sapiens, UniProt P08684).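 Further: CYP3A4 tested as one member of a cytochrome P450 panel screen.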
Cytochrome P450 3A4, sequence (P08684 whole entry): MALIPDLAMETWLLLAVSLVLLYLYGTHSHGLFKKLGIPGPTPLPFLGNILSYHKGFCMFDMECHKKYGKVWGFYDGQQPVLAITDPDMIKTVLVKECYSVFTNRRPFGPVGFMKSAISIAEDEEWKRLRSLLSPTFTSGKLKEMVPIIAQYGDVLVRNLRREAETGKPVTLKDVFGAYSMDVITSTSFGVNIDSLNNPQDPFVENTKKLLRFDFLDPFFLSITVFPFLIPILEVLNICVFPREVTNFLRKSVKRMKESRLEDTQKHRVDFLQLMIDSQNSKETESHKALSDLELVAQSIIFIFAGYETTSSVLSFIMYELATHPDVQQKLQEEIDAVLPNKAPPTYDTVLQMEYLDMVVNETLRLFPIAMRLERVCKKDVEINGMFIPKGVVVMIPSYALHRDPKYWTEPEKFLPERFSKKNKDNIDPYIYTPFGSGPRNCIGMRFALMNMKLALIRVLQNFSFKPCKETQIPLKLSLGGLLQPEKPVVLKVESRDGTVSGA
Settings: not given
Take `Cc1nn(CC(=O)NCc2ccccc2Cl)c(C)c1[N+](=O)[O-]`: the AC50 was 14.1 µM (inconclusive).

Regarding `O=C(N/N=C/c1ccc(Cl)cc1)Nc1ccccc1`, the AC50 is 12.6 µM (inconclusive).

On to `C/C(=N\NC(=O)c1cccc(Cl)c1)c1cccc(NC(=O)C(C)C)c1`, for which the AC50 is 15.8 µM (inconclusive).

On to `COc1ccc(-c2nc(C(=O)N3CCN(C)CC3)sc2-c2ccc(OC)cc2)cc1` [FR-122047], for which the concentration at half-maximal activity (AC50) was 7.94 µM (inconclusive).

The target of the next test is T5, RNA-binding protein pos-1 (Caenorhabditis elegans, UniProt G5EF15).
T5 sequence (G5EF15 whole entry): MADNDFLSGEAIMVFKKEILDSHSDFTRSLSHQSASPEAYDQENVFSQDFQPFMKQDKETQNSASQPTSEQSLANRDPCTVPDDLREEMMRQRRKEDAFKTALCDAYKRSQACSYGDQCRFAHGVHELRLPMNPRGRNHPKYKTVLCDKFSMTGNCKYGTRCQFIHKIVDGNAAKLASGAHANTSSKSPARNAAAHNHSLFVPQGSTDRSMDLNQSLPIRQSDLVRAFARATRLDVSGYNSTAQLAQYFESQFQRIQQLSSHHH
In words: disruptors of C. elegans POS-1 RNA interaction – biochemical, fluorescence polarization, dose response (AID 1964).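 Further: purified POS-1 fused to maltose binding protein made in E. coli; potency of compounds blocking POS-1 binding to fluorescent RNA.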
Settings: not given
Take `Nc1ncnc(NNC(=O)CNC(=O)c2c(F)cccc2Cl)c1[N+](=O)[O-]`: the EC50 is 0.548 µM (active).

In the case of `C=CCN1C(=O)NC(=O)/C(=C/c2c(CCN(C)C(=O)c3ccccc3)cc3c(c2OC)OCO3)C1=O`, the EC50 is > 300 µM (not active).

With `CCC(Oc1ccccc1)C(=O)Nc1ccccn1` (stereo not drawn), the EC50 was > 300 µM (not active).

As to `COc1ccc(NC(=O)/C=C/c2cccc(Br)c2)cn1`, the EC50 is 16 µM (active).

As to `O=c1[nH]n(-c2ncnc3c2cnn3-c2ccccc2)c(=O)c2ccccc12`, the EC50 was 11.6 µM (active).

As for `COc1cccc(=O)c2c(C)oc(C)c12`, the EC50 is > 300 µM (not active).

The target in the next test is T4, Corticotropin-releasing factor receptor 2/Corticotropin-releasing factor-binding protein. The test can be described thus: Dose Response confirmation of uHTS hits for small molecule antagonists of the CRF-binding protein and CRF-R2 receptor complex. The format is functional. The conditions noted are these: read-out: IC50_Mean.
`Nc1ncnc(NNC(=O)CNC(=O)c2c(F)cccc2Cl)c1[N+](=O)[O-]`: the IC50 is > 47.1 µM (inactive).

As for `COCCn1c(=N)c(C(=O)NCc2ccco2)cc2c(=O)n3cc(C)ccc3nc21`, the IC50 was > 47.1 µM (inactive).
